Several values for one entry are separate records, joined by “and”; a condition that tells them apart may be missing. Equal values may be shown once. Read-outs that look alike come from different tables or passages of the source.
Assays:
[1] = test system: PEDF secretion by RPE; test: PEDF secretion by pigmented RPE cells (ELISA of conditioned medium); format: cell-based
Method: Mutations in OA1 cause defects in the development of the neurosensory retina. […] After treatment, the cells were returned to standard medium without exogenous L-DOPA for three days. Control cells were not treated with L-DOPA, but the medium was changed at the same time the experimental cells were returned to normal medium. Conditioned medium was collected after three days and PEDF was measured.
In these experiments, pigmented RPE cells were either maintained in DMEM, or DMEM containing 200 μM PTU for three days, then PEDF secretion was measured. […] The data are presented as percent of control for this experiment because the cultures used varied in both pigmentation and PEDF expression before the experiment began.

[2] = test system: retinal ganglion cells and photoreceptors; test: L-DOPA supplementation in drinking water of tyrosinase deficient pregnant mice and pups (E7 to P14); format: in vivo; conditions: 1.0 mg/ml in drinking water, E7 to P14, tyrosinase deficient mice
[3] = molecular target: T1, OA1 (Homo sapiens, UniProt P51810); conditions: untransfected cells
T1 sequence (P51810 whole entry): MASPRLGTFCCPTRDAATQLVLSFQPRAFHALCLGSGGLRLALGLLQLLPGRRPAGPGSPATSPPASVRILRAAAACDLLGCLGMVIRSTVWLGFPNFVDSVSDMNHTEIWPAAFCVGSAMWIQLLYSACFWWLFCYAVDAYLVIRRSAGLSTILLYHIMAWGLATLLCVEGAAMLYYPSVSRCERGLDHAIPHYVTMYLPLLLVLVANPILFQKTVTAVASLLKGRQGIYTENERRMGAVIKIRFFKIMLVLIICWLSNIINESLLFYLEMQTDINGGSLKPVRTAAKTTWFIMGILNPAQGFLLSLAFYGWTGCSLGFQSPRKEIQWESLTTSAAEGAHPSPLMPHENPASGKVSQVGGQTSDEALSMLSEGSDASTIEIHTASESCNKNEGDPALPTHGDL

[4] = molecular target: T1, OA1; test: Measurement of [Ca2+]i (Fura-2 ratiometric imaging) in CHO cells transfected to express OA1; format: cell-based; design: expressed in transfected cells; host or cells: CHO cells (ATCC)
[5] = molecular target: T1, OA1; conditions: 1.0 μM
[6] = molecular target: T1, OA1; test: Radiolabeled ligand binding of [3H]-L-DOPA to CHO cells transfected to express OA1 (saturation); design: expressed in transfected cells; host or cells: CHO cells (ATCC)
[7] = molecular target: T1, OA1; test: Cell surface biotinylation / western blot of OA1 in cultured cells at lowered tyrosine; format: cell-based; design: expressed in transfected cells; host or cells: CHO cells (ATCC)
Method: Endosomal localization of GPCRs occurs normally after exposure to a ligand. Therefore, it was investigated whether a ligand for the receptor was present in the standard incubation medium that could drive internalization of OA1. Since the standard culture medium contains 500 μM tyrosine, and tyrosine is the starting material for pigment synthesis, the effect of tyrosine on receptor distribution was evaluated. To test whether tyrosine affected OA1 distribution in cultured cells DMEM was formulated without tyrosine, and dialyzed fetal bovine serum was used. In the presence of tyrosine-free medium, OA1 was detected on the plasma membrane of cultured RPE cells both in the absence (not shown), and in medium containing low concentrations of tyrosine (1 μM, FIG. 1 B). […] Similarly, OA1-GFP expressed in COS illustrated a cell surface expression that was tyrosine sensitive (FIG. 1 C). Quantification of six such experiments indicated significant variability in the amount of OA1 found at the cell surface using transient transfections. […]
Not only was the distribution of OA1 in transfected cells sensitive to tyrosine levels in the medium, total OA1-GFP expression was increased 5-fold in cells maintained in 1 μM tyrosine. To verify that this difference related to OA1 expression rather than cell number, actin expression was evaluated from the paired samples. […]

[8] = molecular target: T1, OA1; test: Competitive binding against 5 μM [H3] L-DOPA in OA1 transfected CHO cells; design: expressed in transfected cells; host or cells: CHO cells (ATCC)

`N[C@@H](Cc1ccc(O)c(O)c1)C(=O)O` [L-DOPA, 2-amino-3-(3,4-dihydroxyphenyl)propanoic acid] was tested, and the PEDF secretion ([1]; 1 μM for one hour, medium collected after three days, vs paired control pigmented RPE) was “significant increase”, the PEDF secretion ([1]; 1.0 μM in continued presence of PTU, measured after 72 hours) was “increasing PEDF secretion” and the “photoreceptor nuclear area (measure of photoreceptor numbers)” value [2] was “increased the photoreceptor nuclear area”. For the same molecule, the “retinal ganglion cell numbers” value [2] was “increases retinal ganglion cell numbers”, the β-arrestin distribution response [3] was “no response” and the “pertussis toxin sensitivity of the [Ca2+]i increase” value ([4]; in presence of pertussis toxin, CHO and RPE) was “not pertussis toxin sensitive”. The “change in [Ca2+]i” value ([5]; RPE cells transfected to express OA1) was “increase”, the “change in [Ca2+]i” value ([5]; RPE expressing endogenous OA1) was “increase” and the Kd ([6]; Kd of L-DOPA binding to OA1, OA1 transfected CHO cells, [3H]-L-DOPA) was 9.34 µM and 9.35 µM. For the same molecule, the “specific binding of L-DOPA” value ([6]; untransfected CHO cells) was “No specific binding”.
In the case of `NC(=S)Nc1ccccc1` [PTU, phenylthiourea], the PEDF secretion ([1]; 200 μM for three days, pigmented RPE) is reported as “significant decrease”.
For `N[C@@H](Cc1ccc(O)cc1)C(=O)O` [tyrosine], the “effect on [Ca2+]i” value ([4]; concentrations up to 1 mM, OA1 transfected CHO cells) was “no positive effect”, the “OA1 in the bound (cell surface) fraction” value ([7]; OA1-GFP transfected COS cells maintained in 1 μM tyrosine) was 5-40% and the “increase of total OA1-GFP expression” value ([7]; transfected cells in 1 μM tyrosine vs normal DMEM (500 μM)) was 5 fold. The Ki [8] was 52.9 µM and the “competition with L-DOPA for OA1 binding” value ([8]; competitor at 1 mM) was “competed with L-DOPA”.
pertussis toxin was tested, and the “basal level of [Ca2+]i” value ([4]; all cells studied (transfected CHO and RPE, RPE with endogenous OA1)) was “lowered the basal level”.

— US9861600B2, “Methods and compositions for treating and identifying compounds to treat age-related macular degeneration treatment” (Arizona Board of Regents on behalf of the University of …, priority 2008, dated 2018)
